Source: publication PMC4467461, “Small-molecule activation of SERCA2a SUMOylation for the treatment of heart failure” (Nature Communications, 2015)

Tests used:
[1] = system: pressure overload-induced mouse model of HF (TAC); assay: Invasive P–V loop haemodynamics in TAC heart failure mice; type: in vivo
Description: B6C3F1 mice were acquired from Jackson Laboratories. Mice underwent TAC using a supraclavicular construction model as described. TAC or sham surgery was performed in 8∼10-week-old male mice (25∼30 g). Mice were anaesthetized with intraperitoneal ketamine (95 mg kg^−1) and xylaxine (5 mg kg^−1), and ventilated with a tidal volume of 0.1 ml and a respiratory rate of 110 breaths per minute (Harvard Apparatus, MA, USA). A 2- to 3-mm longitudinal cut was made in the proximal portion of the sternum, allowing visualization of the aortic arch. The transverse aortic arch was ligated between the innominate and left common carotid arteries with an overlaying 27-gauge needle. The needle was immediately removed, leaving a discrete region of constriction. Animal sham group underwent a similar procedure without ligation. Only animals with fractional shortening < 50% were determined as being in HF and suitable for further study.
(§1) One day after echocardiography, we performed in-vivo haemodynamics. The mice were anaesthetized with an intraperitoneal injection mixture of urethane (1 mg g^−1), etomidate (10 μg g^−1) and morphine (1 μg g^−1), and were then intubated via a tracheotomy and mechanically ventilated at 7 μl g^−1 tidal volume and 120 respirations per minute. A small incision was made in the apex and a French Millar cathether connected a high-fidelity pressure transducer (Scisense, London, ON, Canada) inserted into the LV. Haemodynamic recordings were performed after 5∼10 min of stable HR. The rate of pressure rise (+dP/dt) and maximal pressure, the time constant of isovolumic relaxation and HR were recorded and analysed. To determine the relative effects of the admittance and conductance techniques to contractility change induced by N106 compound infusion, whole haemodynamic function was recorded at both baseline and after administration of N106 compound through the external jugular vein. N106 compound was solubilized in 10% DMSO (Sigma-Aldrich), 10% Tween-80 (Sigma-Aldrich) and saline for in-vivo experiments. N106 or vehicle solutions were continuously infused through the external jugular vein at a rate of 50 μl min^−1 for 2 min in each dose. Whole haemodynamic functions of increasing dose of N106 of each mouse were recorded for ∼4 h. Each dose of N106 solution was infused after back to baseline of heart function.

[2] = system: Serca2 KO mice; assay: Invasive P–V loop haemodynamics in cardiac-specific Serca2a knockout mice; type: in vivo
Description: Figure 5 Lack of effects of N106 on haemodynamic parameters in cardiac-specific Serca2a knockout mice. Systolic and diastolic function was determined in conditional cardiac-specific Serca2a knockout mice by pressure–volume analysis. […] There was no significant change in haemodynamic parameters with N106 treatment after a single dose (1 mg kg^−1) (a-f) and different doses (0.1, 1 and 10 mg kg^−1) (g,h). Data are represented as mean±s.e.m. n=3∼8 mice per each condition. NS, not significant; Student’s t-test.
as §1

[3] = Serca2a knockout mice, 1 mg kg^−1

## COc1ccc(-c2nnc(Nc3nc4c(OC)cccc4s3)o2)cc1 [Compound N106, N-(4-methoxybenzo[d]thiazol-2-yl)-5-(4-methoxyphenyl)-1,3,4-oxadiazol-2-amine]
[1]; 0.1 mg kg^−1 infusion
  +dP/dtmax: 4803.33±91.78 mm Hg s^−1
  HR: 417.11±4.54 bpm
  Pmax: 115.11±1.27 mm Hg
  τ, time constant of isovolumetric relaxation: 7.50 ± 0.15 ms
[1]; 0.1 mg kg^−1 infusion via jugular vein
  ESPVR slope: 9.04±1.20 mm Hg μl^−1
[1]; 1 mg kg^−1 infusion
  +dP/dtmax: 5448.83±147.09 mm Hg s^−1
  ESPVR slope: 11.26±1.00 mm Hg μl^−1
  HR: 422.33±3.79 bpm
  Pmax: 123.66±5.28 mm Hg
  τ, time constant of isovolumetric relaxation: 6.40 ± 0.15 ms
[1]; 10 mg kg^−1 infusion
  +dP/dtmax: 6229.41±103.23 mm Hg s^−1
  ESPVR slope: 20.3±0.41 mm Hg μl^−1
  HR: 455.08±5.62 bpm
  Pmax: 124.50±4.26 mm Hg
  τ, time constant of isovolumetric relaxation: 6.27 ± 0.13 ms
[2]; Serca2 KO, 1 mg kg^−1 and 0.1, 1 and 10 mg kg^−1
  improvements in haemodynamic parameters: did not induce any improvements
[2]; [3]
  +dP/dtmax: 2917.8±412.9 mm Hg s^−1
  HR: 311.2±16.1 bpm
  Pmax: 75.0±4.4 mm Hg
  τ: 11.2 ± 1.0 ms
[2]; Serca2a knockout mice, 1 mg kg^−1 via jugular vein
  ESPVR slope: 3.9±0.7 mm Hg μl^−1
